Type in all cases: in vivo
The test system of one test is Meloidogyne incognita. Kind of test: Meloidogyne incognita test (sand, lettuce, gall formation). As to conditions: Meloidogyne incognita, 336 h, 20 ppm, after 14 days; read-out: nematicidal efficacy (formation of galls). In outline: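 Vessels held sand, diluted compound solution, M. incognita egg/larvae suspension and lettuce seeds, and the plants grew for 14 days. Efficacy in % came from root gall formation: 100% means no galls, 0% means galls equal to the untreated control.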

The next test concerns Phaedon cochleariae. Briefly: Phaedon cochleariae spray test. As to conditions: 500 g/ha, Chinese cabbage leaf discs, after 7 days. The method, then: Phaedon cochleariae—Spray Test
(§1) To produce a suitable active compound preparation, 1 part by weight of active compound is dissolved with the specified parts by weight of solvent and made up to the desired concentration with water containing an emulsifier concentration of 1000 ppm. To produce further test concentrations, the formulation is diluted with emulsifier-containing water.
After 7 days, the efficacy in % is determined. 100% means that all the beetle larvae have been killed; 0% means that no beetle larvae have been killed.

Another test concerns Boophilus microplus. Kind of test: Boophilus microplus injection test. Particulars: 20 μg/animal, after 7 days. The method, then:
Boophilus microplus—Injection Test Solvent: dimethyl sulfoxide To produce a suitable active compound preparation, 10 mg of active compound are mixed with 0.5 ml of solvent and the concentrate is diluted to the desired concentration with solvent. 1 μl of the active compound solution is injected into the abdomen of 5 engorged adult female cattle ticks (Boophilus microplus). The animals are transferred into dishes and kept in a climate-controlled room. Efficacy is assessed after 7 days by laying of fertile eggs. Eggs which are not visibly fertile are stored in a climate-controlled cabinet until the larvae hatch after about 42 days. An efficacy of 100% means that none of the ticks has laid any fertile eggs; 0% means that all the eggs are fertile.

For a further test, the system named is Nezara viridula. Kind of test: Nezara viridula spray test. As to conditions: 500 g/ha, barley plants, after 4 days. The method, then:
Nezara viridula—Spray Test [table] To produce a suitable active compound preparation, 1 part by weight of active compound is dissolved with the specified parts by weight of solvent and made up to the desired concentration with water containing an emulsifier concentration of 1000 ppm. To produce further test concentrations, the formulation is diluted with emulsifier-containing water. Barley plants (Hordeum vulgare) infected with larvae of the Southern green shield bug (Nezara viridula) are sprayed with an active compound preparation of the desired concentration. After 4 days, the efficacy in % is determined. 100% means that all of the shield bugs have been killed; 0% means that none of the shield bugs have been killed.

Another test concerns Nilaparvata lugens. Kind of test: Nilaparvata lugens test. Particulars: 500 g/ha, spray, rice plants, after 4 days. The method, then:
Nilaparvata lugens Test [table] To produce a suitable active compound preparation, 1 part by weight of active compound is dissolved with the specified parts by weight of solvent and made up to the desired concentration with water containing an emulsifier concentration of 1000 ppm. To produce further test concentrations, the formulation is diluted with emulsifier-containing water. Rice plants (Oryza sativa) are sprayed with the active compound preparation of the desired concentration and then infected with larvae of the brown planthopper (Nilaparvata lugens). After 4 days, the efficacy in % is determined. 100% means that all of the planthoppers have been killed; 0% means that none of the planthoppers have been killed.

The subject of a further test is Lucilia cuprina. Briefly: Lucilia cuprina test. As to conditions: 100 ppm, L1 larvae, after 2 days. The procedure:
Lucilia cuprina Test Solvent: dimethyl sulfoxide To produce a suitable active compound preparation, 10 mg of active compound are mixed with 0.5 ml of dimethyl sulfoxide, and the concentrate is diluted with water to the desired concentration. About 20 L1 larvae of the Australian sheep blowfly (Lucilia cuprina) are transferred into a test vessel containing minced horsemeat and the active compound preparation of the desired concentration. After 2 days, the kill in % is determined. 100% means that all the larvae have been killed; 0% means that no larvae have been killed.

In the next test the test system is Diabrotica balteata. Kind of test: Diabrotica balteata spray test. As to conditions: 160 μg/well, after 7 days. The procedure:
Diabrotica balteata—Spray Test [table] To produce a suitable active compound preparation, 1 part by weight of active compound is dissolved with the specified parts by weight of solvent and made up to the desired concentration with water containing an emulsifier concentration of 1000 ppm. To produce further test concentrations, the formulation is diluted with emulsifier-containing water. Pre-swollen wheat grains (Triticum aestivum) are incubated in a multiwell plate filled with agar and a little water for one day (5 seed grains per cavity). The germinated wheat grains are sprayed with an active compound preparation of the desired concentration. Subsequently, each cavity is infected with 10-20 beetle larvae of Diabrotica balteata. After 7 days, the efficacy in % is determined. 100% means that all maize plants have grown as in the untreated, uninfected control; 0% means that no maize plant has grown.

The test system of a further test is Aphis gossypii. Briefly: Aphis gossypii oral test. Particulars: 100 ppm, after 5 days. The procedure: Aphis gossypii—Oral Test [table] To produce a suitable active compound preparation, 1 part by weight of active compound is dissolved with the stated parts by weight of solvent and made up to the desired concentration with water. 50 μl of the active compound preparation are transferred into microtitre plates and made up to a final volume of 200 μl with 150 μl of IPL41 insect medium (33%+15% sugar). Subsequently, the plates are sealed with parafilm, which a mixed population of the cotton aphid (Aphis gossypii) within a second microtitre plate is able to puncture and imbibe the solution through it. After 5 days, the efficacy in % is determined. 100% means that all the aphids have been killed; 0% means that no aphids have been killed.

The next test concerns Tetranychus urticae. Briefly: Tetranychus urticae spray test, OP-resistant. As to conditions: foliar, 144 h, bean leaf discs, after 6 days, read-out: efficacy. The method, then: Tetranychus urticae—Spray Test, OP-Resistant
as §1
Discs of bean leaves (Phaseolus vulgaris) infested with all stages of the greenhouse red spider mite (Tetranychus urticae) are sprayed with an active compound preparation of the desired concentration.
After 6 days, the efficacy in % is determined. 100% means that all the spider mites have been killed; 0% means that no spider mites have been killed.

Another test deals with Ctenocephalides felis. Briefly: Ctenocephalides felis oral test. As to conditions: 100 ppm, after 2 days. The method, then:
Ctenocephalides felis—Oral Test Solvent: dimethyl sulfoxide To produce a suitable active compound preparation, 10 mg of active compound are mixed with 0.5 ml of dimethyl sulfoxide. Dilution with citrated cattle blood gives the desired concentration. About 20 unfed adult cat fleas (Ctenocephalides felis) are placed into a chamber which is closed at the top and bottom with gauze. A metal cylinder whose bottom end is closed with parafilm is placed onto the chamber. The cylinder contains the blood/active compound preparation, which can be imbibed by the fleas through the parafilm membrane. After 2 days, the kill in % is determined. 100% means that all of the fleas have been killed; 0% means that none of the fleas have been killed.

As for `Cc1cccc(S(=O)(=O)NC(=O)c2ncn(CCC(F)(F)F)c2Cl)c1` [I-035], the pest or weed control at 20 ppm in the test on Meloidogyne incognita stood at 90%. The efficacy in the test on Phaedon cochleariae, in the test on Nezara viridula and in the test on Nilaparvata lugens was 100% each time. Also, the “efficacy (laying of fertile eggs)” value with Boophilus microplus is reported as 100%. The “efficacy (kill in %)” value in the test with Lucilia cuprina is given as 100%.
In turn, `COc1ccc(Cl)c(S(=O)(=O)NC(=O)c2nc(Cl)n(CCC(F)(F)F)c2Cl)c1` [I-118] showed an efficacy with Diabrotica balteata of 100%. Further, the pest or weed control at 20 ppm with Meloidogyne incognita amounted to 100%.
Turning to `CS(=O)(=O)NC(=O)c1cn(Cc2ccc(C(F)(F)F)c(Cl)c2)cn1` [I-412], in the test on Meloidogyne incognita, the pest or weed control at 20 ppm is 100%. The efficacy in the test with Aphis gossypii worked out at 90%.
Regarding `COc1cccc(S(=O)(=O)NC(=O)c2ncn(CCC(F)(F)F)c2Cl)c1` [I-032], the pest or weed control at 20 ppm with Meloidogyne incognita worked out at 90%. Besides, the efficacy is recorded as 83% in the test with Phaedon cochleariae, 100% in the test with Nezara viridula and 100% in the test with Nilaparvata lugens. In the test on Tetranychus urticae, the pest or weed control at 500 g/ha worked out at 90%. Besides, in the test with Boophilus microplus, the “efficacy (laying of fertile eggs)” value stood at 90%. In the test on Ctenocephalides felis, the “efficacy (kill in %)” value is given as 70%.

For the origin of these results see US10820591B2, “Substituted sulfonyl amides for controlling animal pests” (Bayer Aktiengesellschaft, priority 2016, dated 2020).
